“And” between values parts separate entries of the source, which are not always exact repeats. Equal values may be shown once. Inconclusive results and toxic doses are left out. Cut-off read from the data, not from the text of the source: active = T/C of 150% or more; inactive = T/C below 125%.
System: L1210 leukemia ip in BDF1 mice, survival T/C
Assay: NCI In Vivo Anticancer Drug Screen. Data for tumor model L1210 Leukemia (intraperitoneal) in B6D2F1 (BDF1) mice
Settings: endpoint: mean survival time, higher = longer survival
Procedure, shortened: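 Transplanted-tumor mice were given test agent; controls received vehicle only. Survival readings from the two groups were divided (treated over control).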

[1] = dose: 200.0 mg/kg/injection, schedule: Q04DX003 (ip), vehicle: Klucel (hydroxypropylcellulose) (HPC)
[2] = dose: 400.0 mg/kg/injection, schedule: Q04DX003 (ip), vehicle: Klucel (hydroxypropylcellulose) (HPC)
[3] = dose: 100.0 mg/kg/injection, schedule: Q04DX003 (ip), vehicle: saline with Tween-80
[4] = dose: 200.0 mg/kg/injection, schedule: Q04DX003 (ip), vehicle: saline with Tween-80
[5] = dose: 50.0 mg/kg/injection, schedule: Q01DX009 (ip), vehicle: saline
[6] = dose: 100.0 mg/kg/injection, schedule: Q01DX009 (ip), vehicle: saline
[7] = dose: 100.0 mg/kg/injection, schedule: Q04DX003 (ip), vehicle: saline
[8] = dose: 200.0 mg/kg/injection, schedule: Q01DX009 (ip), vehicle: saline
[9] = dose: 200.0 mg/kg/injection, schedule: Q04DX003 (ip), vehicle: saline
[10] = dose: 400.0 mg/kg/injection, schedule: Q04DX003 (ip), vehicle: saline
[11] = dose: 100.0 mg/kg/injection, schedule: Q01DX001 (ip), vehicle: saline
[12] = dose: 200.0 mg/kg/injection, schedule: Q01DX001 (ip), vehicle: saline
[13] = dose: 400.0 mg/kg/injection, schedule: Q01DX001 (ip), vehicle: saline
[14] = dose: 50.0 mg/kg/injection, schedule: Q01DX001 (ip), vehicle: saline
[15] = dose: 100.0 mg/kg/injection, schedule: Q04DX002 (ip), vehicle: Klucel (hydroxypropylcellulose) (HPC)
[16] = dose: 200.0 mg/kg/injection, schedule: Q04DX002 (ip), vehicle: Klucel (hydroxypropylcellulose) (HPC)
[17] = dose: 400.0 mg/kg/injection, schedule: Q04DX002 (ip), vehicle: Klucel (hydroxypropylcellulose) (HPC)
[18] = dose: 100.0 mg/kg/injection, schedule: Q01DX009 (ip), vehicle: Klucel (hydroxypropylcellulose) (HPC)
[19] = dose: 200.0 mg/kg/injection, schedule: Q01DX009 (ip), vehicle: Klucel (hydroxypropylcellulose) (HPC)
[20] = dose: 400.0 mg/kg/injection, schedule: Q01DX009 (ip), vehicle: Klucel (hydroxypropylcellulose) (HPC)
[21] = dose: 200.0 mg/kg/injection, schedule: Q04DX003 (ip), vehicle: acetone
[22] = dose: 400.0 mg/kg/injection, schedule: Q04DX003 (ip), vehicle: acetone
[23] = dose: 100.0 mg/kg/injection, schedule: Q04DX003 (ip), vehicle: Klucel (hydroxypropylcellulose) (HPC)

Measured: T/C

Cc1c2ccncc2cc2c3ccccc3n(CCO)c12
inactive: dose: 9.38 mg/kg/injection, schedule: Q01DX009 (ip), vehicle: Klucel (hydroxypropylcellulose) (HPC) 105 % of control | dose: 18.75 mg/kg/injection, schedule: Q01DX009 (ip), vehicle: Klucel (hydroxypropylcellulose) (HPC) 107 % of control | dose: 18.75 mg/kg/injection, schedule: Q04DX003 (ip), vehicle: Klucel (hydroxypropylcellulose) (HPC) 97 % of control | dose: 37.5 mg/kg/injection, schedule: Q01DX009 (ip), vehicle: Klucel (hydroxypropylcellulose) (HPC) 107 % of control | dose: 37.5 mg/kg/injection, schedule: Q04DX003 (ip), vehicle: Klucel (hydroxypropylcellulose) (HPC) 107 % of control | dose: 75.0 mg/kg/injection, schedule: Q04DX003 (ip), vehicle: Klucel (hydroxypropylcellulose) (HPC) 105 % of control | [1] 98 % of control | [2] 104 % of control

O=C1c2ccccc2CCCC1N1CCOCC1 (stereo not given)
inactive: [3] 95 % of control | [4] 94 % of control | dose: 400.0 mg/kg/injection, schedule: Q04DX003 (ip), vehicle: saline with Tween-80 87 % of control

COc1ccc2c3c1OC1CC(O)C=CC31CCN(C)C2 (stereo not given)
inactive: dose: 2.5 mg/kg/injection, schedule: Q01DX009 (ip), vehicle: saline 102 % of control | dose: 2.9 mg/kg/injection, schedule: Q01DX Z (ip), vehicle: saline 105 % of control | dose: 5.0 mg/kg/injection, schedule: Q01DX009 (ip), vehicle: saline 107 % of control

Cc1cccc(NC(N)=O)c1
inactive: [5] 96 % of control | [6] 97 % of control | [7] 95 % of control | [8] 94 % of control | [9] 97 % of control | [10] 94 % of control

C=C1C(=O)OCC2(CC)CCCCC12 (stereo not given)
inactive: dose: 20.0 mg/kg/injection, schedule: Q01DX009 (ip), vehicle: saline with Tween-80 103 % of control | dose: 40.0 mg/kg/injection, schedule: Q01DX009 (ip), vehicle: saline with Tween-80 106 % of control | dose: 80.0 mg/kg/injection, schedule: Q01DX009 (ip), vehicle: saline with Tween-80 91 % of control | dose: 160.0 mg/kg/injection, schedule: Q01DX009 (ip), vehicle: saline with Tween-80 98 % of control

CCC[CH2][Sn]([CH2]CCC)([CH2]CCC)[O]C(=O)CC[S][Sn]([CH2]CCC)([CH2]CCC)[CH2]CCC
inactive: dose: 0.5 mg/kg/injection, schedule: Q01DX015 (ip), vehicle: saline 97 % of control | dose: 1.0 mg/kg/injection, schedule: Q01DX015 (ip), vehicle: saline 100 % of control | dose: 2.0 mg/kg/injection, schedule: Q01DX015 (ip), vehicle: saline 95 % of control | dose: 2.5 mg/kg/injection, schedule: Q01DX001 (ip), vehicle: saline 103 % of control | dose: 4.0 mg/kg/injection, schedule: Q01DX015 (ip), vehicle: saline 87 % of control | dose: 5.0 mg/kg/injection, schedule: Q01DX001 (ip), vehicle: saline 100 % of control | dose: 10.0 mg/kg/injection, schedule: Q01DX001 (ip), vehicle: saline 105 % of control | dose: 20.0 mg/kg/injection, schedule: Q01DX001 (ip), vehicle: saline 97 % of control

CCOCCOC(=O)CSCC(=O)OCCOCC
inactive: [11] 93 % of control | [12] 104 % of control | [13] 109 % of control

CN(C)CCCN1c2ccccc2S(=O)c2ccc(Cl)cc21 (stereo not given)
inactive: dose: 12.5 mg/kg/injection, schedule: Q01DX009 (ip), vehicle: saline 96 % of control | dose: 25.0 mg/kg/injection, schedule: Q01DX009 (ip), vehicle: saline 102 % of control | dose: 25.0 mg/kg/injection, schedule: Q04DX003 (ip), vehicle: saline 109 % of control | [5] 111 % of control | dose: 50.0 mg/kg/injection, schedule: Q04DX003 (ip), vehicle: saline 106 % of control | [6] 96 % of control | [7] 95 % of control | [8] 107 % of control | [9] 103 % of control

O=C(CO)NCO
inactive: [11] 103 % of control | [12] 101 % of control | [13] 101 % of control

C/C=N\O
inactive: dose: 25.0 mg/kg/injection, schedule: Q01DX001 (ip), vehicle: saline 112 % of control | [14] 102 % of control | [11] 102 % of control

CCCCCCC(CO)CO
inactive: [11] 89 % of control | [12] 91 % of control | [13] 94 % of control

Nc1nc(-c2ccccc2)nc2nc3[nH]c(=O)[nH]c(=O)c3nc12
inactive: [15] 94 % of control | [16] 102 % of control | [17] 98 % of control

O=[N+]([O-])c1nccn1C1OC(CO)C(O)C1O (stereo not given)
inactive: [14] 98 % of control | [11] 98 % of control | [12] 102 % of control | [13] 102 % of control

CC1(C)C(=O)Nc2ccccc2N1C(=O)CN1CC2CCC(CC2)C1
inactive: [6] 94 % of control | [7] 93 % of control | [8] 92 % of control | [9] 95 % of control | [10] 98 % of control

O=C(N/N=C/C=C/c1ccccc1)c1ccccc1O
inactive: [18] 92 % of control | [19] 89 % of control | [20] 95 % of control

Cc1csc(/N=C/c2ccc([N+](=O)[O-])o2)n1
inactive: dose: 50.0 mg/kg/injection, schedule: Q01DX009 (ip), vehicle: saline with Tween-80 100 % of control | dose: 100.0 mg/kg/injection, schedule: Q01DX009 (ip), vehicle: saline with Tween-80 105 % of control | [3] 103 % of control | dose: 200.0 mg/kg/injection, schedule: Q01DX009 (ip), vehicle: saline with Tween-80 101 % of control | [4] 97 % of control

CCN(CCOC(=O)Nc1cc([N+](=O)[O-])ccc1C)c1ccccc1
inactive: [15] 87 % of control | [16] 94 % of control | [17] 90 % of control

CC1(C)CC2(CC3(C1)SCCS3)SCCS2
inactive: [11] 94 % of control | dose: 100.0 mg/kg/injection, schedule: Q04DX003 (ip), vehicle: acetone 89 % of control | [12] 97 % of control | [21] 96 % of control | [13] 89 % of control | [22] 91 % of control

c1ccc2cc(SSc3ccc4ccccc4c3)ccc2c1
inactive: [23] 95 % of control | [1] 89 % of control | [2] 86 % of control

O=C(OCC(O)C(O)C(O)C(SCc1ccccc1)SCc1ccccc1)c1ccc([N+](=O)[O-])cc1 (stereo not given)
inactive: [11] 93 % of control | [12] 94 % of control | [13] 94 % of control

O=C1Nc2cccc3c2N(CCC3)C2=C1CCC2
inactive: [15] 105 % of control | [16] 105 % of control | [17] 108 % of control

CCc1nc2c(c(=O)[nH]1)C(c1ccc(Cl)cc1)C(C)(C)O2 (stereo not given)
inactive: [21] 94 % of control | [22] 105 % of control

CCC1N(C)CCCN1C
inactive: [3] 97 % of control | [4] 95 % of control

c1ccc(CNc2ccccc2)cc1
inactive: dose: 100.0 mg/kg/injection, schedule: Q01DX009 (sc), vehicle: olive oil, sesame oil, peanut oil 95 % of control | dose: 100.0 mg/kg/injection, schedule: Q04DX003 (sc), vehicle: olive oil, sesame oil, peanut oil 94 % of control | dose: 200.0 mg/kg/injection, schedule: Q01DX009 (sc), vehicle: olive oil, sesame oil, peanut oil 92 % of control | dose: 200.0 mg/kg/injection, schedule: Q04DX003 (sc), vehicle: olive oil, sesame oil, peanut oil 102 % of control | dose: 400.0 mg/kg/injection, schedule: Q01DX009 (sc), vehicle: olive oil, sesame oil, peanut oil 100 % of control | dose: 400.0 mg/kg/injection, schedule: Q04DX003 (sc), vehicle: olive oil, sesame oil, peanut oil 105 % of control

CCOC(=O)c1nc[nH]c1C
inactive: [18] 103 % of control | [15] 98 % of control and 101 % of control | [23] 103 % of control | [19] 100 % of control and 120 % of control | [16] 100 % of control and 103 % of control | [1] 103 % of control | [20] 103 % of control and 119 % of control | [17] 103 % of control | [2] 98 % of control

Reference: PubChem BioAssay AID248 (DTP/NCI, 2004)
